Assays:
[1] = test system: Meth A fibrosarcoma tumor cells; test: Tumor rejection after immunization with neoepitope-pulsed BMDCs and Meth A challenge; assay type: in vivo, BALB/cJ mice; conditions: for Tumor rejection activity (in words): immunized twice 1 week apart with neoepitope-pulsed BMDCs (3 × 10^6), challenge with 95,000 Meth A cells 1 week later, CTLA4 blockade except TGAARFDEF
Source text: The 8 MS-defined neoepitopes were used to immunize naive BALB/cJ mice twice, 1 week apart, with neoepitope-pulsed bone marrow–derived dendritic cells (BMDCs, 3 × 10^6) as adjuvants, as previously published ([22]). All mice were challenged with 95,000 Meth A tumor cells 1 week after the second immunization, and tumor growth was monitored in individual mice (Figure 2, A and B). […] The TCI score parameterizes the tumor rejection, tumor inhibition, and tumor stability scores to produce a total TCI score, which reflects the control of the tumor growth in each group.
Day 7 BMDCs were pulsed with 40 μg of the neoepitope (1 μL of a 20 mM neoepitope solution was added to 7.5 million BMDCs in 200 μL RPMI medium for final peptide concentration of 100 μM). The pulsed BMDCs were washed 4 times and used to immunize a single mouse. Mice were randomized before being used for immunization with individual peptides to control for any cage effects. All immunizations were performed in the presence of CTLA4 blockade, using the […] (clone 9D9, Bio X Cell), administered with the second immunization and every 3 days after tumor challenge except for peptide TGAARFDEF. Tumor diameters were measured in 2 dimensions and the average diameter determined.
TCI quantitates and integrates all 3 aspects of tumor growth: inhibition, period of tumor size stability, and tumor shrinkage (complete response), as published previously ([23]).

tetramer+ CD8+ T cells [2] = test: Tetramer staining of CD8+ T cells in immunized naive non-tumor-bearing mice; assay type: in vivo, BALB/cJ mice; conditions: for CD8+ T cell response by tetramer staining (in words): immunized naive, non-tumor-bearing mice; for Tetramer+ cells of total CD8+ T cells, blood: blood harvested 1 week after second immunization
Protocol: In parallel, naive, non–tumor-bearing mice immunized with the neoepitopes were tested for CD8^+ T cell responses to 7 of the 8 neoepitopes. ELISpot assays could not be performed because of the high background generated by incubation of T cells with any DCs. […] Tetramer staining was therefore used for better sensitivity and specificity (Figure 2D). (Tetramers against the neoepitope MAPVRTASM derived from Aebp1 gene could not be made.) Blood and the spleen of the immunized mice were harvested 1 week after the second immunization and stained for CD3, CD8, as well as specific binding to neoepitope tetramers (Figure 2, D and E). Of the 2 neoepitopes able to strongly elicit tumor rejection (TGAARFDEF and AYMKMLSSSL), only TGAARFDEF elicited a measurable CD8^+ T cell response as detected by tetramer staining. […] Of these, the response elicited by VGPEILSSL (derived from Trib3) was the strongest CD8^+ T cell response among all neoepitopes; approximately 10% of the CD8^+ T cells (in blood) in mice immunized with it were tetramer^+. As controls, we measured, in 2 instances, tetramer response in mice immunized with an irrelevant neoepitope; such nonspecific response was never detected.
(§1) The antibody specific for Fixable Viability Dye eFluor 780 was purchased from eBioscience. PE tetramer specific for each neoepitope was synthesized, validated, and tested by MBL International Corporation. Tetramer testing was performed prior to product release according to standard operating procedures of MBL, and the tetramers were further tested for specificity in our laboratory. The FITC-labeled antibody specific for CD8 (clone KT15) was purchased from the same company. BV510 CD3 (clone 17A2) was purchased from Biolegend. Mouse FcR blocking reagent was purchased from Miltenyi Biotec. Flow cytometry was performed using Miltenyi Biotec MACSQuant analyzer. The analysis was done using FlowJo software (FlowJo LLC).

tetramer+ CD8+ T cells [3] = test: Tetramer staining of CD8+ T cells in non-immunized tumor-bearing mice; assay type: in vivo, BALB/cJ mice; conditions: unimmunized Meth A tumor-bearing mice, blood and spleen
Protocol: Thus, of the 7 neoepitopes tested, 4 neoepitopes elicited expansion of tetramer^+ CD8^+ T cells on immunization of naive, non–tumor-bearing mice (Figure 2E). We now examined CD8^+ T cell responses to the 4 neoepitopes in unimmunized, tumor-bearing mice (Figure 2F). […] As controls, CD8 cells from mice bearing an antigenically irrelevant tumor (4T1) were tested for tetramer response to all 7 neoepitopes; no response was detected. Altogether, CD8^+ T cell responses in non-immunized tumor-bearing mice and immunized tumor-naive mice were often discordant.
as §1

IFN-γ+ CD8+ cells = IFN-γ+ CD8+ cells from mice immunized with individual peptides; assay type: in vivo, BALB/cJ mice; conditions: data not shown
[4] = test system: Meth A fibrosarcoma tumor cells; test: CD8 depletion in vivo during priming of neoepitope-immunized mice; set-up: species or system BALB/cJ mice; conditions: 250 μg anti-CD8 depleting antibody or isotype control 6 days before first immunization (priming phase)
Protocol: CD8 dependence of neoepitope-elicited tumor immunity was tested in the case of the peptide TGAARFDEF (derived from Gtf2b) by depletion of neoepitope-immunized mice by anti-CD8 depleting antibody or an isotype control antibody during the priming phase alone, as described in the Methods. […] The kinetics of recovery of the depleted CD8^+ cells in mice is not uniform, resulting in lack of abrogation of immunity in 2 of the 5 mice. Because depletion of CD4^+ T cells results in depletion of helper as well as regulatory CD4^+ T cells, and the 2 effects are contradictory, depletion of CD4^+ cells was not attempted.
BALB/cJ mice were injected with 250 μg of isotype control (InVivoMAb rat IgG2b isotype control, Bio X Cell) or CD8-depleting antibody (InVivoMAb anti–mouse CD8α, rat IgG2b, clone 2.43, Bio X Cell) antibodies 6 days before the first immunization (priming phase). The CD8^+ cells remained completely depleted in all mice until day 6; after that the recovery was variable.

[5] = neoepitope-pulsed BMDC immunization, 95,000 Meth A cells challenge

Sequence	CD8+ T cell response by tetramer staining (in words) (tetramer+ CD8+ T cells [2])	CD8+ T cell response by tetramer staining (in words) (tetramer+ CD8+ T cells [3])	Tumor rejection activity (in words) [1]	further results
AYMKMLSSSL	did not elicit a measurable CD8^+ response			Immunized mice able to reject the tumor completely [1, 5]: 60%; Immunized mice with relatively prolonged tumor stabilization [1, 5]: 30%
IGPRALDVL	good tetramer CD8^+ T cell response	significant CD8^+ T cell response	intermediate tumor rejection	
IGPRAVDVL [reference compound]			intermediate tumor rejection activity	Tetramer+ cells (CD8+ T cell response), tissue not stated (tetramer+ CD8+ T cells [2]; immunized naive mice, 1 week after second immunization): ~ 0.35%
KYLQVASHV			inactive	
KYLQVASHVGL	strong CD8^+ T cell response	did not elicit such a response	did not elicit tumor rejection	
SYLLGSGEARL				Immunized mice able to reject the tumor completely [1, 5]: about 50%
TGAARFDEF		could not detect a measurable CD8^+ T cell response	complete tumor rejection	IFN-γ+ CD8+ cell response (IFN-γ+ CD8+ cells): a specific response was detected; CD8 dependence of neoepitope-elicited tumor immunity [4]: completely abolished the neoepitope-elicited tumor rejection in 3 of the 5 mice; Tetramer+ cells of total CD8+ T cells, blood (tetramer+ CD8+ T cells [2]; immunized naive mice): approximately 0.7%; Tetramer+ cells of total CD8+ T cells, spleen (tetramer+ CD8+ T cells [2]; immunized naive mice, spleen harvested 1 week after second immunization): ~0.43%
VGPEILSSL		significant CD8^+ T cell response	no tumor rejection	Tetramer+ cells of total CD8+ T cells, blood (tetramer+ CD8+ T cells [2]; immunized naive mice): approximately 10%
YIRPFETKVK				Tumor Rejection Score (max score = 5) ([1]; BALB/cJ mice immunized with peptide-pulsed BMDCs, Meth A challenge, Table 2): 4.5
